Patent US10393744B2, “Peptides for targeting colorectal cancer, and medical use thereof” (UNIVERSITY OF ULSAN FOUNDATION FOR INDUSTRY COOPERATION, priority 2014, dated 2019)

Legend:
[1] = system: Radio-sensitive colorectal cancer tissue of patient (case C87); experiment: In vivo/ex vivo imaging and phage elution of Cy5.5-labeled peptide-expressing phages in mouse model transplanted with patient's colorectal cancer tissue (Example 4); set-up: species or system nude mouse; details: for in vivo ROI: Cy5.5 fluorescence total flux standardized to Cy5.5 dye control; for pfu/mg (concentration of eluted phages relative to weight of cancer tissue) / ex vivo ROI: extracted cancer tissue; for ex vivo ROI: standardized to Cy5.5 dye control
From the text: (§1) Then, the distributed cancer tissue was kept in a specific preservative solution and transferred directly to an animal chamber, so as to maintain a state in which the cancer tissue was not separated from a patient yet. After an NOD/SCID mouse was anesthetized via intraperitoneal injection of anesthetics, the cancer tissue was cut into pieces each having a size of 3×3 mm. Next, each of both flanks of the NOD/SCID mouse was transplanted with a piece of the cut cancer tissues, and sutured. The NOD/SCID mouse was then recovered on a heating pad for about 2 hours (conditions of the preservative solution: HBSS containing 100 IU/ml penicillin, 100 μg/ml streptomycin, 100 μg/ml gentamicin, 2.5 μg/ml amphotericin B, and 5% fetal bovine serum). After completion of the transplantation, the NOD/SCID mouse was raised until tumors were formed. Meanwhile, the formation and growth of tumors were checked at least once a week. When the transplanted cancer tissues grew to a size of at least 500 mm^3, an extraction process was performed thereon. Then, the extracted cancer tissues were each cut into pieces each having a size of 3×3 mm for subculturing. A nude mouse was anesthetized via intraperitoneal injection of anesthetics, and a piece of the cut cancer tissues was transplanted subcutaneously on the right thigh of the nude mouse. A transplantation site was changed from the flank to the thigh so that irradiation can be locally done without affecting other organs during irradiation. That is, a finally used mouse model transplanted with a patient's colorectal cancer tissue in the present invention was a mouse model established in a way that a cancer tissue that underwent subculturing four times was re-transplanted to form a cancer tissue. When the size of the cancer tissue was increased to about 250 mm^3, only the cancer tissue was irradiated with 2 grays (Gy) of radiation. After having recovery time for no longer than 24 hours, in vivo peptide screening was performed. Here, a non-irradiated population, which is a control group, was also subjected to screening in a separate manner.
(§2) In detail, regarding in vivo imaging verification, the peptide-expressing phage was amplified, and a process of linking a fluorescent probe (Cy5.5) was performed. In particular, 1 μg/μl of N-hydroxysuccinimide esters of Cy5.5 (Amersham) was added to 1 mL of bicarbonate buffer (pH 8.3) having the phage concentration of 10^12 plaque forming units (pfu), and then, in a condition where a dark environment was maintained, a phage-surface protein was linked to the Cy5.5 fluorescent probe at room temperature for 3 hours. That is, amine groups of the phage-surface protein were chemically linked to N-hydroxysuccinimide esters of the Cy5.5 fluorescent probe via a covalent bond. The peptide-expressing phages to which the Cy5.5 fluorescent probe was linked were each obtained by precipitation with 170 μl of 20% (w/v) PEG 8000/2.5 M NaCl solution and purification. To determine a proportion of the Cy5.5 fluorescent probe linked to each of the finally obtained phage samples, an IVIS spectrum imaging system (Xenogen) was used for measurement, and region of interest (ROI) values were determined using the software program of a corresponding device.
(§3) In addition, on the last day of the in vivo imaging, the cancer tissues were each extracted, to thereby obtain ex vivo images thereof.

[2] = system: Radio-resistant colorectal cancer tissue of patient (case C65); experiment: as above; set-up: species or system nude mouse; details: for in vivo ROI: Cy5.5 fluorescence total flux standardized to Cy5.5 dye control; for pfu/mg (concentration of eluted phages relative to weight of cancer tissue) / ex vivo ROI: extracted cancer tissue; for ex vivo ROI: standardized to Cy5.5 dye control
From the text: as §1, §2, §3

[3] = case C87, non-irradiated population
[4] = case C65, non-irradiated population
[5] = case C87, irradiated population (2 Gy)
[6] = case C65, irradiated population (2 Gy)

Substance	in vivo ROI [1, 3]	pfu/mg (concentration of eluted phages relative to weight of cancer tissue) [1, 3]	ex vivo ROI [1, 3]	in vivo ROI [2, 4]	ex vivo ROI [2, 4]	further results
AFKSPSG [E14]	0.70	2.89 pfu/mg	0.55	–	–	–
AIKNTKS [E8]	0.90	15.00 pfu/mg	0.49	–	–	–
ASKSTHD [A7]	–	–	–	1.80	1.08	pfu/mg (concentration of eluted phages relative to weight of cancer tissue) [2, 4]: 27.14 pfu/mg
Cy5.5 [reference compound]	1.00	–	1.00	1.00	1.00	in vivo ROI [1, 5]: 1.00; ex vivo ROI [1, 5]: 1.00; in vivo ROI [2, 6]: 1.00; ex vivo ROI [2, 6]: 1.00
DETSGQI [E12]	1.24	5.56 pfu/mg	1.07	–	–	–
DLLHRGA [A9]	–	–	–	2.35	0.56	pfu/mg (concentration of eluted phages relative to weight of cancer tissue) [2, 4]: 54.17 pfu/mg
DNSKLVE [F4]	–	–	–	–	–	in vivo ROI [1, 5]: 1.59; pfu/mg (concentration of eluted phages relative to weight of cancer tissue) [1, 5]: 69.18 pfu/mg; ex vivo ROI [1, 5]: 3.11
DVSGNW [A8]	–	–	–	2.99	1.57	pfu/mg (concentration of eluted phages relative to weight of cancer tissue) [2, 4]: 8.56 pfu/mg
GGNSNQR [E5]	0.92	15.96 pfu/mg	0.76	–	–	–
GQSGARF [F8]	–	–	–	–	–	in vivo ROI [1, 5]: 1.18; pfu/mg (concentration of eluted phages relative to weight of cancer tissue) [1, 5]: 6.10 pfu/mg; ex vivo ROI [1, 5]: 1.92
GYSSFNR [B6]	1.12	3.96 pfu/mg	0.62	–	–	in vivo ROI [2, 6]: 3.03; pfu/mg (concentration of eluted phages relative to weight of cancer tissue) [2, 6]: 211.76 pfu/mg; ex vivo ROI [2, 6]: 2.06
HKTEHRS [E18]	0.69	4.15 pfu/mg	0.21	–	–	–
KISLPHN [E13]	1.50	1.22 pfu/mg	0.93	–	–	–
KLTQMM [F1]	–	–	–	–	–	in vivo ROI [1, 5]: 1.63; pfu/mg (concentration of eluted phages relative to weight of cancer tissue) [1, 5]: 6.73 pfu/mg; ex vivo ROI [1, 5]: 2.39
LGSVGRD [F7]	–	–	–	–	–	in vivo ROI [1, 5]: 1.61; pfu/mg (concentration of eluted phages relative to weight of cancer tissue) [1, 5]: 141.04 pfu/mg; ex vivo ROI [1, 5]: 3.97
LKLGEKW [B7]	–	–	–	–	–	in vivo ROI [1, 5]: 1.00; pfu/mg (concentration of eluted phages relative to weight of cancer tissue) [1, 5]: 1.90 pfu/mg; ex vivo ROI [1, 5]: 2.92; in vivo ROI [2, 6]: 1.72; pfu/mg (concentration of eluted phages relative to weight of cancer tissue) [2, 6]: 3.45 pfu/mg; ex vivo ROI [2, 6]: 0.62
LKTSGTY [E15]	0.77	6.13 pfu/mg	0.47	–	–	–
LQPKASQ [A6]	–	–	–	2.75	1.47	pfu/mg (concentration of eluted phages relative to weight of cancer tissue) [2, 4]: 15.4 pfu/mg
LTGSVNK [E10]	1.19	2.25 pfu/mg	1.00	–	–	–
MARYMSA [A10]	–	–	–	2.26	1.58	pfu/mg (concentration of eluted phages relative to weight of cancer tissue) [2, 4]: 183.16 pfu/mg

Substance	in vivo ROI [1, 3]	pfu/mg (concentration of eluted phages relative to weight of cancer tissue) [1, 3]	ex vivo ROI [1, 3]	in vivo ROI [2, 4]	ex vivo ROI [2, 4]	further results
MNFIQKN [E11]	1.05	4.43 pfu/mg	0.34	–	–	–
NGNSNTL [F9]	–	–	–	–	–	in vivo ROI [1, 5]: 1.77; pfu/mg (concentration of eluted phages relative to weight of cancer tissue) [1, 5]: 95.24 pfu/mg; ex vivo ROI [1, 5]: 4.45
NTGSPYE [A2, 7-amino-acid loop peptide expressed on M13 phage, tested as Cy5.5-labeled phage]	1.13	1.55 pfu/mg	0.77	2.04	1.61	in vivo ROI [1, 5]: 1.15; pfu/mg (concentration of eluted phages relative to weight of cancer tissue) [1, 5]: 4.75 pfu/mg; ex vivo ROI [1, 5]: 2.64; pfu/mg (concentration of eluted phages relative to weight of cancer tissue) [2, 4]: 181.48 pfu/mg
NTWMKSK [A11]	–	–	–	1.93	0.95	pfu/mg (concentration of eluted phages relative to weight of cancer tissue) [2, 4]: 6.71 pfu/mg
QLWQKEQ [F5]	–	–	–	–	–	in vivo ROI [1, 5]: 1.63; pfu/mg (concentration of eluted phages relative to weight of cancer tissue) [1, 5]: 144.55 pfu/mg; ex vivo ROI [1, 5]: 3.72
QQTKNYY [E7]	2.02	58.32 pfu/mg	1.38	–	–	–
RSTGSSC [E16]	0.50	2.14 pfu/mg	0.24	–	–	–
SFFPFST [F3]	–	–	–	–	–	in vivo ROI [1, 5]: 1.07; pfu/mg (concentration of eluted phages relative to weight of cancer tissue) [1, 5]: 22.31 pfu/mg; ex vivo ROI [1, 5]: 2.64
SHMEYPR [A1, 7-amino-acid loop peptide expressed on M13 phage, tested as Cy5.5-labeled phage]	1.68	74.12 pfu/mg	1.72	1.77	1.27	in vivo ROI [2, 6]: 2.27; pfu/mg (concentration of eluted phages relative to weight of cancer tissue) [2, 6]: 230 pfu/mg; ex vivo ROI [2, 6]: 1.89; pfu/mg (concentration of eluted phages relative to weight of cancer tissue) [2, 4]: 136.36 pfu/mg
SNVYDHN [A3]	–	–	–	1.62	0.67	pfu/mg (concentration of eluted phages relative to weight of cancer tissue) [2, 4]: 34.8 pfu/mg
STEHTRS [A4]	–	–	–	3.20	1.83	pfu/mg (concentration of eluted phages relative to weight of cancer tissue) [2, 4]: 264.86 pfu/mg
STMNGKV [B1]	–	–	–	–	–	in vivo ROI [2, 6]: 1.52; pfu/mg (concentration of eluted phages relative to weight of cancer tissue) [2, 6]: 16.67 pfu/mg; ex vivo ROI [2, 6]: 1.48
SWGDRIL [A5]	–	–	–	2.16	1.52	pfu/mg (concentration of eluted phages relative to weight of cancer tissue) [2, 4]: 51.38 pfu/mg
TAFSLGK [E6]	0.78	4.24 pfu/mg	0.77	–	–	–
TNPYPLD [F10]	–	–	–	–	–	in vivo ROI [1, 5]: 1.91; pfu/mg (concentration of eluted phages relative to weight of cancer tissue) [1, 5]: 7.86 pfu/mg; ex vivo ROI [1, 5]: 1.74
TVRSSAE [B3]	–	–	–	–	–	in vivo ROI [2, 6]: 2.38; pfu/mg (concentration of eluted phages relative to weight of cancer tissue) [2, 6]: 195.40 pfu/mg; ex vivo ROI [2, 6]: 1.63
TVRTSAV [E9]	1.27	86.40 pfu/mg	1.20	–	–	–
VPSQKSK [B4]	–	–	–	–	–	in vivo ROI [2, 6]: 2.12; pfu/mg (concentration of eluted phages relative to weight of cancer tissue) [2, 6]: 20.62 pfu/mg; ex vivo ROI [2, 6]: 1.36
VQMPAHS [E4]	0.84	5.00 pfu/mg	0.94	–	–	–
YVSKNNS [E17]	1.66	204.00 pfu/mg	1.29	–	–	–
